Data set [1] can be described thus: Wettability (wetting time), method of International IDF Standard 87:1979. The class given is physicochemical. Particulars: for effect of coating on the wetting time: FIG. 1, coated versus uncoated amino acid; for wetting time: amino acid not coated. From the text: The wettability (wetting time) can be determined using the method of International IDF Standard 87:1979.

The conditions of data set [2]: according to Eisenburg et al., Faraday Symp. Chem. Soc. 17:109-120 (1982); cited from earlier work.

On to `N[C@@H](Cc1ccc(O)cc1)C(=O)O` [Tyr], for which, in data set [1], the “effect of coating on the wetting time” value is reported as “no or only a minor effect” and the wetting time entry is given as “short wetting time”. Also, the “Hydrophobicity of amino acids (side chain hydrophobicity, SCH)” value (“Hydrophobicity of amino acids” below) in data set [2] is listed as “+0.08 kJ/mol”. For the compound `NC(=O)C[C@H](N)C(=O)O` [Asn], in data set [2], the “Hydrophobicity of amino acids” value is -0.645 kcal/mol. Take `O=C(O)[C@@H]1CCCN1` [Pro]: the “Hydrophobicity of amino acids” value in data set [2] was -0.0693 kcal/mol.

For the compound `NCCCC[C@H](N)C(=O)O` [Lys, lysine], in data set [2], the “Hydrophobicity of amino acids” value is -1.1 kcal/mol. `N[C@@H](CS)C(=O)O` [Cys, cysteine]: in data set [2], the “Hydrophobicity of amino acids” value is “+0.17 kJ/mol”. Turning to `N[C@@H](CO)C(=O)O` [Ser], the “Hydrophobicity of amino acids” value in data set [2] was -0.263 kcal/mol. For the compound `CC(C)[C@H](N)C(=O)O` [Val, valine], in data set [2], the “Hydrophobicity of amino acids” value is “+2.3 kJ/mol”. For the compound `C[C@H](N)C(=O)O` [Ala], in data set [1], the “effect of coating on the wetting time” value is “no or only a minor effect” and the wetting time entry is “short wetting time”. Moreover, the “Hydrophobicity of amino acids” value in data set [2] is reported as “+1.0 kJ/mol”. Regarding `N[C@@H](CCC(=O)O)C(=O)O` [Glu], the “Hydrophobicity of amino acids” value in data set [2] is -0.621 kcal/mol. As to `N=C(N)NCCC[C@H](N)C(=O)O` [Arg], the “Hydrophobicity of amino acids” value in data set [2] was -1.79 kcal/mol. `CC[C@H](C)[C@H](N)C(=O)O` [Ile, isoleucine]: the “Hydrophobicity of amino acids” value in data set [2] was “+3.1 kJ/mol”. With `C[C@@H](O)[C@H](N)C(=O)O` [Thr, threonine], the “Hydrophobicity of amino acids” value in data set [2] is -0.179 kcal/mol.

Turning to `N[C@@H](Cc1c[nH]c2ccccc12)C(=O)O` [Trp, tryptophan], in data set [2], the “Hydrophobicity of amino acids” value was “+1.5 kJ/mol”. For `CSCC[C@H](N)C(=O)O` [Met, methionine], in data set [2], the “Hydrophobicity of amino acids” value is recorded as “+1.1 kJ/mol”. `NCC(=O)O` [Gly, glycine]: the wetting time entry in data set [1] is recorded as “short wetting time”. Also, the “Hydrophobicity of amino acids” value in data set [2] is recorded as “+0.67 kJ/mol”. For the compound `N[C@@H](Cc1c[nH]cn1)C(=O)O` [His], in data set [2], the “Hydrophobicity of amino acids” value was -0.406 kcal/mol. With `N[C@@H](Cc1ccccc1)C(=O)O` [Phe, phenylalanine], the “Hydrophobicity of amino acids” value in data set [2] is recorded as “+2.5 kJ/mol”. Regarding `N[C@@H](CC(=O)O)C(=O)O` [Asp], the “Hydrophobicity of amino acids” value in data set [2] was -0.717 kcal/mol.

(Values after US9056056B2, “Processing for dispersing amino acids” (N.V. Nutricia, priority 2007, dated 2015).)
